Tests used:
Assay in all cases: biochemical
Parameters in all cases: KINOMEscan scanMAX active site-directed competition binding assay, percent of control, 468 kinases
Details in all cases: competition binding, percent of control
MET(Y1235D) = MET(Y1235D) (Homo sapiens, UniProt P08581, Y1235D)
Procedure, shortened: (§1)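 Single-concentration screen (100 μM S-carvone) in a competition binding panel of 468 human kinases (KINOMEscan scanMAX); results given as percent of control, hit cutoff 35%.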

[1] = target: T1, TYK2(JH1domain-catalytic) (Homo sapiens, UniProt P29597)
T1 construct: JH1domain-catalytic
Procedure, shortened: as §1

[2] = target: T2, RSK4(Kin.Dom.1-N-terminal) (Homo sapiens, UniProt Q9UK32)
T2 construct: gene RPS6KA6; Kin.Dom.1-N-terminal
Procedure, shortened: as §1

FGFR3(G697C) = FGFR3(G697C) (Homo sapiens, UniProt P22607, G697C)
Procedure, shortened: as §1

KIT(V559D) = KIT(V559D) (Homo sapiens, UniProt P10721, V559D)
Procedure, shortened: as §1

PFTK1 = target: T3, PFTK1 (Homo sapiens, UniProt O94921)
T3 construct: gene CDK14
Procedure, shortened: as §1

VEGFR2 = target: T4, VEGFR2 (Homo sapiens, UniProt P35968)
T4 construct: gene KDR
Procedure, shortened: as §1

BRK = target: T5, BRK (Homo sapiens, UniProt Q13882)
T5 construct: gene PTK6
Procedure, shortened: as §1

EPHB1 = EPHB1 (Homo sapiens, UniProt P54762)
Procedure, shortened: as §1

FLT3(R834Q) = FLT3(R834Q) (Homo sapiens, UniProt P36888, R834Q)
Procedure, shortened: as §1

[3] = target: T6, ABL1(Y253F)-phosphorylated (Homo sapiens, UniProt P00519, Y253F)
T6 construct: phosphorylated
Procedure, shortened: as §1

HUNK = HUNK (Homo sapiens, UniProt P57058)
Procedure, shortened: as §1

IKK-epsilon = target: T7, IKK-epsilon (Homo sapiens, UniProt Q14164)
T7 construct: gene IKBKE
Procedure, shortened: as §1

TRKA = target: T8, TRKA (Homo sapiens, UniProt P04629)
T8 construct: gene NTRK1
Procedure, shortened: as §1

TBK1 = TBK1 (Homo sapiens, UniProt Q9UHD2)
Procedure, shortened: as §1

PIM1 = PIM1 (Homo sapiens, UniProt P11309)
Procedure, shortened: as §1

FAK = target: T9, FAK (Homo sapiens, UniProt Q05397)
T9 construct: gene PTK2
Procedure, shortened: as §1

NEK2 = NEK2 (Homo sapiens, UniProt P51955)
Procedure, shortened: as §1

SGK = target: T10, SGK (Homo sapiens, UniProt O00141)
T10 construct: gene SGK1
Procedure, shortened: as §1

WEE1 = WEE1 (Homo sapiens, UniProt P30291)
Procedure, shortened: as §1

PAK3 = PAK3 (Homo sapiens, UniProt O75914)
Procedure, shortened: as §1

PIM1, sequence (P11309 whole entry): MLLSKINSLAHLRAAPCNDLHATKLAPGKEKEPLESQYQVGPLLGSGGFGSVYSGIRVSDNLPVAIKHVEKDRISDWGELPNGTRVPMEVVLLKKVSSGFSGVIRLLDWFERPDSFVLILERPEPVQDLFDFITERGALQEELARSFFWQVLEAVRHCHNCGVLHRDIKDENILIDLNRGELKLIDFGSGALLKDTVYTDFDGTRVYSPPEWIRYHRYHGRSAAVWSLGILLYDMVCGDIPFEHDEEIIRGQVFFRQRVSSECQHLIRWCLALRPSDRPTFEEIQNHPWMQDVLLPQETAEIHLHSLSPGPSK
WEE1, sequence (P30291 whole entry): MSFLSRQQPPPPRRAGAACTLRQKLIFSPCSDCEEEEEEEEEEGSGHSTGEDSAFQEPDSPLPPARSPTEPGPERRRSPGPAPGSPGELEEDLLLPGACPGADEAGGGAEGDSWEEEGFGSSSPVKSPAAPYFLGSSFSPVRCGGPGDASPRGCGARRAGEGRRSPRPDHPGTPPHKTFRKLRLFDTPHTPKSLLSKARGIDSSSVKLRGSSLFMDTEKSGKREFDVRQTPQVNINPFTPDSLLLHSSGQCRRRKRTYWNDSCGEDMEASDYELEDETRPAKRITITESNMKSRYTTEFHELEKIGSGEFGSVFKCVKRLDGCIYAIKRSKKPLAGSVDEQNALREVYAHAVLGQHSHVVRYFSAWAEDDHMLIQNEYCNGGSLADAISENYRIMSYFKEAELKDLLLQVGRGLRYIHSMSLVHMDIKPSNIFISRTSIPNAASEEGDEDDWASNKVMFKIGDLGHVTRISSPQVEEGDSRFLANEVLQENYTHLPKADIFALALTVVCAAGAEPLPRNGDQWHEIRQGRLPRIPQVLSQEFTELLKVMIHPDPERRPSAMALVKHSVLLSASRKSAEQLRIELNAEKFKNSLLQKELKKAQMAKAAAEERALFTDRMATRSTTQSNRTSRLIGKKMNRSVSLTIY
T9 sequence (Q05397 whole entry): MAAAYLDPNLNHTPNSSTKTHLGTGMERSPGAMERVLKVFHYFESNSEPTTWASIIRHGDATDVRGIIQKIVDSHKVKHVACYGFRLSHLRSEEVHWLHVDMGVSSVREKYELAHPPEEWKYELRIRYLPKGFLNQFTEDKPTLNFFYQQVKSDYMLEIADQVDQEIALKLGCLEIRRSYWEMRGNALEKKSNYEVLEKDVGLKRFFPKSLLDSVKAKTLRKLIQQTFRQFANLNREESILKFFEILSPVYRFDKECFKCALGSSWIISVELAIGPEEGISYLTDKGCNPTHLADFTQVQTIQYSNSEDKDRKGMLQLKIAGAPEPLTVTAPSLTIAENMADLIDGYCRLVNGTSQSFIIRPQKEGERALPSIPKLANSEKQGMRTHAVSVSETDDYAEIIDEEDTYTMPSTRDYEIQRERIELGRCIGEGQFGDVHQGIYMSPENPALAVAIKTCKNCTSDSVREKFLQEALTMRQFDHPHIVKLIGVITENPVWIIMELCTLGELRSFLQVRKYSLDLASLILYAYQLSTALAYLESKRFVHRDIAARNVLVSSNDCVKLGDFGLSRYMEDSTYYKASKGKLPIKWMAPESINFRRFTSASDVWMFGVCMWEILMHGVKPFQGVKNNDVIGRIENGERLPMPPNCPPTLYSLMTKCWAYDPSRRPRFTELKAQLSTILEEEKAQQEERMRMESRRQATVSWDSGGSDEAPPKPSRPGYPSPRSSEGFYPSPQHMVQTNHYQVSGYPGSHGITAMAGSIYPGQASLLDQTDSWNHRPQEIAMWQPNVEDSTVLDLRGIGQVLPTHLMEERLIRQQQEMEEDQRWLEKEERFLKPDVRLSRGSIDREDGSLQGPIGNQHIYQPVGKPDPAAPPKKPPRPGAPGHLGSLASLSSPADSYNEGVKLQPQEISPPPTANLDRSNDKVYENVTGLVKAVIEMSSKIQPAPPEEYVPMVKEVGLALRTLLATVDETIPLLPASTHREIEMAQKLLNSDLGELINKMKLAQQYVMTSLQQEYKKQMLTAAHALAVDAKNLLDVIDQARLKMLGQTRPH
KIT(V559D), sequence (P10721 whole entry V559D): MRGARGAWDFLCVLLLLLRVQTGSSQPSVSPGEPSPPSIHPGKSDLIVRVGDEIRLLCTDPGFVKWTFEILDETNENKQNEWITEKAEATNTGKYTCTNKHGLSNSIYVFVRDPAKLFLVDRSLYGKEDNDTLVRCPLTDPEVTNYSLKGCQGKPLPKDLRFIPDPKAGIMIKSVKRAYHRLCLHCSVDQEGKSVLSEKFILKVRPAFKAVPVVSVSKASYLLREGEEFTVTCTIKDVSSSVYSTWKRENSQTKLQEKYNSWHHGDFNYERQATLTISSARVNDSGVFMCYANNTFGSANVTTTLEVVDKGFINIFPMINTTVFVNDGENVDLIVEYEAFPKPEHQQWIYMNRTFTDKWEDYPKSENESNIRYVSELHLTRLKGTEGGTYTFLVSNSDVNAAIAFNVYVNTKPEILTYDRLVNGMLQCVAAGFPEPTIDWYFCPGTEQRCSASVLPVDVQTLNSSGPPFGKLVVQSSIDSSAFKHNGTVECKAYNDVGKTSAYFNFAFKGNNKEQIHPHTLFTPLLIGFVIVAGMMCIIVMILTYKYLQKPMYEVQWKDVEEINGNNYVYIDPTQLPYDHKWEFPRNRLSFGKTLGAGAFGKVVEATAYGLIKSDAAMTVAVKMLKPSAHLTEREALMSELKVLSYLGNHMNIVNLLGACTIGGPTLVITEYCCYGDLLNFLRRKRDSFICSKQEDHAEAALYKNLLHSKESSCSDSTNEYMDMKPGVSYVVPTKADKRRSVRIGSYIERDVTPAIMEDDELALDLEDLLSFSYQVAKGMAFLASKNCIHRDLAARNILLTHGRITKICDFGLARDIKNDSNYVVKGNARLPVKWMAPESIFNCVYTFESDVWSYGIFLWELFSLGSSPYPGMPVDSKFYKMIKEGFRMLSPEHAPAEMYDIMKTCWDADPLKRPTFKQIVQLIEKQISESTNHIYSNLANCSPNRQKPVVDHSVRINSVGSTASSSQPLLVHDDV
T4 sequence (P35968 whole entry): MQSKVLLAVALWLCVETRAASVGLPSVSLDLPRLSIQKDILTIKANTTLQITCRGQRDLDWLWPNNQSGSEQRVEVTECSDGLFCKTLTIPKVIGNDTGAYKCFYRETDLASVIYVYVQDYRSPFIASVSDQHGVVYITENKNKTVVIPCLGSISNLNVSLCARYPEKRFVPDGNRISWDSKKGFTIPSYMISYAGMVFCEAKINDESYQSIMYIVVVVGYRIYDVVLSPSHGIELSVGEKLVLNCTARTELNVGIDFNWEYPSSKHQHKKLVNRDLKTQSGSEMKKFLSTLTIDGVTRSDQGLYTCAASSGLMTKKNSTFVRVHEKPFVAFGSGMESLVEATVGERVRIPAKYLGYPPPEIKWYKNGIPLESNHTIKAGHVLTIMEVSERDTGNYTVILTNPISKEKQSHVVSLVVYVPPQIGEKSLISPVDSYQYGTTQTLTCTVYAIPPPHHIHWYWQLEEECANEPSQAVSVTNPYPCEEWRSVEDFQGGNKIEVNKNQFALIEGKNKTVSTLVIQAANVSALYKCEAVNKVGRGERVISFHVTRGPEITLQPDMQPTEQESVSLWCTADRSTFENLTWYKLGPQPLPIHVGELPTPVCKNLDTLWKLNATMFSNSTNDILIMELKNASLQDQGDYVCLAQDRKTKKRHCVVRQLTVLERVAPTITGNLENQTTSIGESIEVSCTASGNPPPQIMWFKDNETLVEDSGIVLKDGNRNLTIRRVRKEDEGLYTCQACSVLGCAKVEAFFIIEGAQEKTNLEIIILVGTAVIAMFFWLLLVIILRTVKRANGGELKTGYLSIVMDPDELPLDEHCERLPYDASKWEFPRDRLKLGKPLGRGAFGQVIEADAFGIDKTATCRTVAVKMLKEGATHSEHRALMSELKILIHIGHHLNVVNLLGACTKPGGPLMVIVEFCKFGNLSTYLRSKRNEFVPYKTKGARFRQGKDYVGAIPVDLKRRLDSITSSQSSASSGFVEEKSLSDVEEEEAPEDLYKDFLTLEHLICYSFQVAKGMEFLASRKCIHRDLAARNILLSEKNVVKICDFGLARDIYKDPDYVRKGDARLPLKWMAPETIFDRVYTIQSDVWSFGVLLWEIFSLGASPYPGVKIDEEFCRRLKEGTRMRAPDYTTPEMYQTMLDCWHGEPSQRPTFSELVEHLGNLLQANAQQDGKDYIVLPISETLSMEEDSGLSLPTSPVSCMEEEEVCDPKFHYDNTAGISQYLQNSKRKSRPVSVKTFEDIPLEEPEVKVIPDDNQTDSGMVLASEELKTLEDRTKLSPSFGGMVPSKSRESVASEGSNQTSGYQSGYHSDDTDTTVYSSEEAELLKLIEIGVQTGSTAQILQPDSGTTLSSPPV
HUNK, sequence (P57058 whole entry): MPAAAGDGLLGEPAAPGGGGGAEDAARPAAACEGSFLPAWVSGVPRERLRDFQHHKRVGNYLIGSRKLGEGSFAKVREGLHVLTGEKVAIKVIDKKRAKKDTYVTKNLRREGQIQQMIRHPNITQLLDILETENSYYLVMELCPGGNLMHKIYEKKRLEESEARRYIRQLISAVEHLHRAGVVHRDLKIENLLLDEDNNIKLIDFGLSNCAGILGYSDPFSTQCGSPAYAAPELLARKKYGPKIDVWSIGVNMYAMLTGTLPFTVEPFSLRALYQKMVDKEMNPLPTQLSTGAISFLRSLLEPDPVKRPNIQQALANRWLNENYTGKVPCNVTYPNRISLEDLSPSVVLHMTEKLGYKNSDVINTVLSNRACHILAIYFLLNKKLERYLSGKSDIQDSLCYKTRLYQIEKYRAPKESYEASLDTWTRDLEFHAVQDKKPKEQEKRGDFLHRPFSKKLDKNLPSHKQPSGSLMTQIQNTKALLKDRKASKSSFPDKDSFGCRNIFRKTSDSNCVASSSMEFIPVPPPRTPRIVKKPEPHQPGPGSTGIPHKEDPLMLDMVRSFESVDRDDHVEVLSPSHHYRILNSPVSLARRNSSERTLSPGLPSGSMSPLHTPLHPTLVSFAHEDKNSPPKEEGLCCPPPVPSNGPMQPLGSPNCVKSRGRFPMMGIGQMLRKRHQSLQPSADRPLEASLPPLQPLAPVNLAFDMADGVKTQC

remaining binding at 100 µM (MET(Y1235D)): 87%
remaining binding at 100 µM [1]: 58%
remaining binding at 100 µM [2]: 63%
remaining binding at 100 µM (FGFR3(G697C)): 75%
remaining binding at 100 µM (KIT(V559D)): 89%
remaining binding at 100 µM (PFTK1): 93%
remaining binding at 100 µM (VEGFR2): 60%
remaining binding at 100 µM (BRK): 86%
remaining binding at 100 µM (EPHB1): 88%
remaining binding at 100 µM (FLT3(R834Q)): 83%
remaining binding at 100 µM [3]: 67%
remaining binding at 100 µM (HUNK): 63%
remaining binding at 100 µM (IKK-epsilon): 52%
remaining binding at 100 µM (TRKA): 82%
remaining binding at 100 µM (TBK1): 64%
remaining binding at 100 µM (PIM1): 77%
remaining binding at 100 µM (FAK): 81%
remaining binding at 100 µM (NEK2): 100%
remaining binding at 100 µM (SGK): 70%
remaining binding at 100 µM (WEE1): 81%
remaining binding at 100 µM (PAK3): 78%
Compound: C=C(C)[C@H]1CC=C(C)C(=O)C1 [S-carvone]
